# Test results reported in patent publication US9012413B2, “FGF receptor-activating N-acyl octasaccharides, preparation thereof, and therapeutic use thereof” (Sanofi, priority 2009, dated 2015).
# Assays:
# [1] = Pharmacokinetics after cutaneous administration to mice, plasma LC/MS-MS; format: in vivo; conditions: OF1 or C57/BL6 mice, 30 mg/kg, single administration
# Protocol: The pharmacokinetic profile of the compounds according to the invention is evaluated after cutaneous administration, to OF1 or C57/BL6 mice, at a concentration of 30 mg/kg. The systemic exposure of the compounds is evaluated after a single administration to the animal anaesthetized beforehand with pentobarbital. The blood is collected from the vena cava and then transferred into plastic tubes containing lithium heparin. After centrifugation (2000×g for 10 minutes at 8° C.), the concentration of the compounds in the plasma is quantified by LC/MS-MS.
# [2] = test system: BALB/c J mice; test: Model of cellulose implant in mice (haemoglobin concentration in the implant, angiogenesis); format: in vivo
# Protocol: This model is an adaptation of the model described by Andrade et al. (Microvascular Research, 1997, 54, 253-61) for testing pharmacological products capable of activating the onset of angiogenesis.
# The animals (white consanguineous BALB/c J mice) are anaesthetized with a xylazine (Rompun®, 10 mg/kg)/ketamine (Imalgene® 1000, 100 mg/kg) mixture intraperitoneally. The animal's back is shaved and disinfected with Hexomedine®. An air pocket is created subcutaneously on the mouse's back by injecting 5 ml of sterile air. An incision of about 2 cm at the top of the animal's back is made in order to introduce a sterile cellulose implant (disk 1 cm in diameter, 2 mm thick, Cellspon® ref. 0501) impregnated with 50 μl of sterile solution containing the test product. […]
# Seven days after inserting the sponge, the mice are sacrificed by means of a lethal dose of pentobarbital sodium (CEVA Santé Animale), administered intraperitoneally. […] On the day of the assay, the tubes are again centrifuged after thawing and the haemoglobin concentration is measured with the Drabkin reagent (Sigma, volume for volume) by reading on a spectrophotometer at 405 nm against a standard range of bovine haemoglobin (Sigma).
# The haemoglobin concentration in each sample is expressed in mg/ml from the polynomial regression produced from the range. The results are expressed as a mean value (±sem) for each group. […]
substance,measurement,setting,value
Methyl (sodium 2-O-sodium sulfonato-α-L-idopyranosyluronate)-(1→4)-(2-acetamido-2-deoxy-6-O-sodium sulfonato-α-D-glucopyranosyl)-[(1→4)-(sodium 2-O-sodium sulfonato-α-L-idopyranosyluronate)-(1→4)-(2-acetamido-2-deoxy-6-O-sodium sulfonato-α-D-glucopyranosyl)]2-(1→4)-(sodium 2-O-sodium sulfonato-α-L-idopyranosyluronate)-(1→4)-2-acetamido-2-deoxy-6-O-sodium sulfonato-α-D-glucopyranoside [Compound 7],AUC (0-Clast),[1]; plasma,22 000 ng · h/mL
same,T1/2,[1]; plasma,24 min
same,"Plasma conc., t = 4 h",[1]; plasma at 4 hours,425 ng/mL
same,specific activity in the cellulose implant model (active at),"[2]; BALB/c J mice, subcutaneous cellulose implant, haemoglobin assay after seven days",15 ng/site
same,activity relative to the fully sulfated analogue (all —NH-acyl groups replaced with —NH—SO3— groups),[2]; cellulose implant in mice,greater than 21%
